Consider 5 compounds from patent US11998610B2, “Conjugates and methods of using the same” (Flagship Pioneering Innovations V, Inc., priority 2018, dated 2024).

SMILES strings stand for the structures. Non-standard residues stand in square brackets, D forms with d. Residues, ends and D or L forms follow the SMILES beside them. *: point of attachment. Myristoyl = CCCCCCCCCCCCCC(=O)*; Octanoyl = CCCCCCCC(=O)*

One data set concerns WT ClbP. In words: Assay with purified ClbP protein (LCMS). In kind it is biochemical, E. coli. The settings on record: 20 μM WT ClbP, 500 μM compound, room temperature, 24 h. Here is the method: This example is representative of the method described in Example 91 the soluble peptidase domain (amino acids 38 to 375) of ClbP or the catalytically inert mutant S95A was cloned into pET28a using previously defined boundaries as a starting point (Brotherton, J. Am. Chem. Soc., 135:3359-3362, 2013).
WT ClbP or S95A ClbP was isolated as an N-terminally tagged HiS6-SUMO1-fusion protein from […] using E. coli BL21(DE3)RIPL to express the protein. The cells were lysed in 30 mM Tris pH 8.0, 300 mM NaCl, 10% (v/v) glycerol, benzonase (Sigma-Millipore), lysozyme, B-per (ThermoFisher), and Y-per (ThermoFisher). The lysate was clarified via centrifugation (13,000 g, 20 min), and the supernatant was incubated with HiBond Ni-NTA agarose (5 mL). The resin was subsequently washed with wash buffer (30 mM Tris pH 7.5, 250 mM NaCl, 10 mM imidazole, 3% (v/v) glycerol, and 2 mM TCEP). The resin was incubated at 30° C. for 1 h with 1.4 mg ULP1 protease. The resin was then washed with an additional fraction of wash buffer. Centrifuge filtration was used to concentrate the protein, and the concentrated protein was subsequently applied to a 16/600 Superdex 200 size exclusion column with an isocratic elution of 25 mM HEPES, 25 mM Tris pH 7.4, 325 mM NaCl, 10 mM KCl and 3% (v/v) glycerol at a flow rate of […]. The fractions containing the protein were determined by SDS-PAGE, combined, and concentrated by centrifuge filtration. 3 mM TCEP was added to the concentrated protein, which was then aliquoted, flash frozen in liquid N2, and stored at −80° C.
This example is representative of the method described in Example D, ClbP was incubated with test compounds in an in vitro assay. In a typical assay, 0, 1, or 20 μM purified WT or S95A ClbP was incubated with 100 or 500 μM compound in reaction buffer (50 mM Tris-HCl pH 7.5, 37.5 mM NaCl) at room temperature for 24 h. The total volume of this reaction was 150 μL.
After 24 h, 2 volumes of acetonitrile (300 μL) were added to the reaction to quench the solution.
The reaction was centrifuged (4,000 g, 15 min), and then the supernatant was analyzed by LCMS. 5 μL of the supernatant was injected onto an Acquity UPLC BEH C18 1.7 μm 2.1×100 column. Buffer A was 0.1% (v/v) formic acid in water and buffer B was 0.1% (v/v) formic acid in acetonitrile. The flow rate was 0.5 mL/min. The initial % B was 10, which was held for 30 s then ramped up to 90% B over 3 min, held at 90% B for 1 min, ramped down to 10% B over 15 s, and then held at 10% B for 15 s. The UV-Vis spectrum from 210-400 nm was monitored with 3.6 nm resolution. Positive and negative mode ESI were monitored from 100-1000 m/z with a 20 V cone voltage at 5 Hz sampling frequency in centroid collection.
The relative starting material remaining in the WT ClbP reaction was determined by LCMS and then compared to the residual starting material in the no-enzyme and catalytically inert enzyme (S95A ClbP) reactions. In an ideal case, the amount of residual starting material in the WT ClbP reaction was <25% of the amount in the S95A ClbP and no-enzyme conditions. In an acceptable case, the amount of residual starting material in the WT ClbP reaction was 25-75% of the amount in the S95A ClbP and no-enzyme conditions. In a non-preferred case, the amount of residual starting material in the WT ClbP reaction was >75% of the amount in the S95A ClbP and no-enzyme conditions.
Formation of the anticipated product was likewise quantified by LCMS analysis and confirmed by coelution with an external product standard. In an ideal case, the amount of product formed in the WT ClbP reaction corresponded to >75% of the theoretical maximum. In an acceptable case, the amount of product formed in the WT ClbP reaction corresponded to 25-75% of the theoretical maximum. In a non-preferred case, the amount of product formed in the WT ClbP reaction corresponded to <25% of the theoretical maximum.

For a further data set, the system named is E. coli BL21(DE3). In words: Cell-based assay with ClbP with LCMS, ClbP negative strain. The note with it: 10 μM compound, 37° C., 20 h. The method in brief:
(§1)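 Compound (10 μM final) incubated 20 h at 37° C, aerobically, with 1:40-diluted overnight cultures of ClbP-positive E. coli or negative BL21(DE3), in duplicate, alongside uninoculated LB. Remaining parent quantified by LC-MS/MS (MRM) after acetonitrile quench, expressed as percent of media-alone.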

Data set [1] relates to E. coli CFT073 ATCC 700928 and/or E. coli Nissle 1917. Kind of data set: Cell-based assay with ClbP with LCMS, ClbP positive strain. The note with it: ClbP-encoding E. coli, 10 μM compound, 37° C., 20 h. The method in brief: as §1
Data set [2] can be described thus: In vitro Colonic Material Stability Assay. The class given is in vitro ADME. The note with it: colonic material slurry, anaerobic, 1 or 10 μM, 24 h. Here is the method: Assay 3 In vitro Colonic Material Stability Assay. This assay was used to assess the stability of an acylated active agent in a large intestine. All experiments were performed in an anaerobic chamber containing 90% nitrogen, 5% hydrogen and 5% carbon dioxide. Colonic material was resuspended as a slurry (15% w/v final concentration) in pre-reduced, anaerobically sterilized dilution blanks (Anaerobe Systems AS-908). The colonic material was then inoculated into 96 well plates containing YCFAC media (Anaerobe Systems AS-680) or other suitable media (6.7 μL slurry into 1 mL total media). Compounds or groups of compounds were added to each individual well to reach a final analyte concentration of 1 or 10 μM, and the material was mixed by pipetting. Sample was removed after set timepoints (0, 120, 240, 480, 1440, 2880 minutes after initiation of the assay), quenched with acetonitrile containing internal standard, and analyzed by LC/MS.

A short description of data set [3]: Stability of conjugates in Simulated Intestinal Fluid (SIF). The class given is in vitro ADME. The note with it: simulated intestinal fluid pH 6.7 with pancreatin, 1 μM, 37° C. The method, then:
Assay 2. Stability of conjugates in Simulated Intestinal Fluid (SIF). This assay was used to assess the stability of a conjugate in a small intestine. Phosphate buffer was prepared by dissolving 0.42 g of sodium hydroxide pellets and 3.95 g of monobasic sodium phosphate monohydrate and 6.19 g of sodium chloride in ultrapure water (MilliQ®, Millipore Sigma, Darmstadt, Germany). The pH was adjusted to 6.7 using aq. HCl and aq. NaOH, as necessary, and the solution was diluted with ultrapure water to produce 1 L of the pH 6.7 buffer. 112 mg FaSSIF powder (Biorelevant™, London, UK) was dissolved in 50 mL of the pH 6.7 buffer. 2 to 3 mL of the resulting solution were then added to 500 mg pancreatin (Millipore Sigma, Darmstadt, Germany). The resulting mixture was agitated by finger tapping the vessel containing the mixture until milky suspension formed. At this time, the remainder of the 50 mL FaSSiF/pH 6.7 buffer solution was added. The resulting suspension was flipped upside down 10 times to produce SIF, which was used fresh. Test compounds were dissolved in DMSO stock to 1 mM. An aliquot of the DMSO stock solution was removed and diluted in the SIF media in 15 mL falcon tubes to produce a mixture with a tested compound concentration of 1 μM. A 1 mL aliquot was immediately removed and diluted once with 1 volume of acetonitrile for T0 timepoint. The mixture was sealed and agitated at 37° C. in an incubator. Aliquots (1 mL) were removed at regular intervals and immediately quenched by the addition of 1 volume of acetonitrile. The resulting samples were analyzed by LC/MS to determine degradation rates

A short description of data set [4]: Stability of conjugates in Simulated Gastric Fluid (SGF). The class given is in vitro ADME. The settings on record: simulated gastric fluid pH 1.6 with pepsin, 1 μM, 37° C. The method, then:
Assay 1. Stability of conjugates in Simulated Gastric Fluid (SGF). This assay was used to assess the stability of a conjugate in a stomach. Medium was prepared by dissolving 2 g of sodium chloride in 0.6 L in ultrapure water (MilliQ®, Millipore Sigma, Darmstadt, Germany). The pH was adjusted to 1.6 with 1N hydrochloric acid, and the volume was then adjusted to 1 L with purified water. 60 mg FaSSIF powder (Biorelevant™, London, UK) were dissolved in 500 mL buffer (above). Pepsin was added (0.1 mg/mL) (Millipore Sigma, Darmstadt, Germany), and the solution was stirred. The resulting SGF media were used fresh for each experiment. Test compounds were dissolved in DMSO stock to 1 mM. An aliquot of the DMSO stock solution was removed and diluted in the SGF Media in 15 mL falcon tubes to generate a total compound concentration of 1 μM. A 1 mL aliquot was immediately removed and diluted once with 1 volume of acetonitrile for T0 timepoint. The mixture was sealed and mixed at 37° C. in an incubator. Aliquots (1 mL) were removed at regular intervals and immediately quenched by the addition of 1 volume of acetonitrile. The resulting samples were analyzed by LC/MS to determine degradation rates in SGF.

For `CCCCCCCC(=O)N[C@H](CC(=O)O)C(=O)N[C@@H](C)C(=O)OC` [Example 8, (R)-4-(((S)-1-methoxy-1-oxopropan-2-yl)amino)-3-octanamido-4-oxobutanoic acid] (Octanoyl-[dD]-Ala-OMe), the “Status (compound remaining in WT ClbP reaction relative to no-enzyme control)” value with WT ClbP is recorded as “− (>75% compound remaining in the 20 μM WT ClbP reaction relative to the no-enzyme control)”. For the same compound, in the data set on E. coli BL21(DE3), the “% Remaining in ClbP Negative Relative to Media-Only” value is given as “+ (between 25-75% compound remaining in the 20 μM WT ClbP reaction relative to the no-enzyme control)”. The “% Remaining in ClbP Positve Relative to Media-Only” value in data set [1] was “− (>75% compound remaining in the 20 μM WT ClbP reaction relative to the no-enzyme control)”. The “Assay 3 (% Remaining at 24 h)” value in data set [2] is reported as “B (25-75% of the tested compound remaining)”.

Turning to `COCCOCCC(=O)N[C@H](CC(N)=O)C(=O)N[C@@H](C)C(=O)OC` [Example 61, Methyl (3-(2-methoxyethoxy)propanoyl)-D-asparaginyl-L-alaninate], the “Assay 2 (SIF) (% @ Remaining 4 hours)” value in data set [3] is recorded as “B (25-75% of the tested compound remaining)”. Besides, the “Assay 1 (SGF) (% Remaining @ 1 hours)” value in data set [4] is listed as “C (>75% of the tested compound remaining)”. In addition, in the data set with E. coli BL21(DE3), the “% Remaining in ClbP Negative Relative to Media-Only” value was “− (>75% compound remaining in the 20 μM WT ClbP reaction relative to the no-enzyme control)”. Moreover, the “% Remaining in ClbP Positve Relative to Media-Only” value in data set [1] is “+ (between 25-75% compound remaining in the 20 μM WT ClbP reaction relative to the no-enzyme control)”. Further, the “Assay 3 (% Remaining at 24 h)” value in data set [2] is “C (>75% of the tested compound remaining)”.

Regarding `CCCCCCCC(=O)N[C@H](CC(N)=O)C(=O)N[C@@H](C)CCC(=O)O[C@]1(CC)C(=O)OCc2c1cc1n(c2=O)Cc2c-1nc1ccc(O)cc1c2CC` [Example 49, (S)-4,11-diethyl-9-hydroxy-3,14-dioxo-3,4,12,14-tetrahydro-1H-pyrano[3′,4′:6,7]indolizino[1,2-b]quinolin-4-yl (S)-4-((R)-4-amino-2-octanamido-4-oxobutanamido)pentanoate], in data set [3], the “Assay 2 (SIF) (% @ Remaining 4 hours)” value is reported as “C (>75% of the tested compound remaining)”. Also, the “Assay 1 (SGF) (% Remaining @ 1 hours)” value in data set [4] is on record as “C (>75% of the tested compound remaining)”. Further, in the data set with E. coli BL21(DE3), the “% Remaining in ClbP Negative Relative to Media-Only” value is listed as “+ (between 25-75% compound remaining in the 20 μM WT ClbP reaction relative to the no-enzyme control)”. The “% Remaining in ClbP Positve Relative to Media-Only” value in data set [1] is “++ (<25% compound remaining in the 20 μM WT ClbP reaction relative to the control)”. In addition, in data set [2], the “Assay 3 (% Remaining at 24 h)” value is on record as “C (>75% of the tested compound remaining)”.

With `CCCCCCCCCCCCCC(=O)N[C@H](CC(N)=O)C(=O)N[C@H](C(=O)OC)C(C)C` [Example 3, Methyl tetradecanoyl-D-asparaginyl-L-valinate] (Myristoyl-[dN]-Val-OMe), in data set [3], the “Assay 2 (SIF) (% @ Remaining 4 hours)” value is “C (>75% of the tested compound remaining)”. Moreover, the “Assay 1 (SGF) (% Remaining @ 1 hours)” value in data set [4] is “C (>75% of the tested compound remaining)”. In addition, the “% Remaining in ClbP Negative Relative to Media-Only” value in the data set on E. coli BL21(DE3) is reported as “+ (between 25-75% compound remaining in the 20 μM WT ClbP reaction relative to the no-enzyme control)”. The “% Remaining in ClbP Positve Relative to Media-Only” value in data set [1] is recorded as “+ (between 25-75% compound remaining in the 20 μM WT ClbP reaction relative to the no-enzyme control)”. In addition, the “Assay 3 (% Remaining at 24 h)” value in data set [2] is “B (25-75% of the tested compound remaining)”.

For `COC(=O)[C@H](C)NC(=O)[C@@H](CC(N)=O)NC(=O)C(C)c1ccc(CC(C)C)cc1` (stereo partly drawn) [Example 17, Methyl (2-(4-isobutylphenyl)propanoyl)-D-asparaginyl-L-alaninate], the “Assay 2 (SIF) (% @ Remaining 4 hours)” value in data set [3] was “A (<25% of the tested compound remaining)”. Besides, the “Assay 1 (SGF) (% Remaining @ 1 hours)” value in data set [4] was “C (>75% of the tested compound remaining)”. Besides, in the data set on E. coli BL21(DE3), the “% Remaining in ClbP Negative Relative to Media-Only” value is “+ (between 25-75% compound remaining in the 20 μM WT ClbP reaction relative to the no-enzyme control)”. Moreover, the “% Remaining in ClbP Positve Relative to Media-Only” value in data set [1] was “+ (between 25-75% compound remaining in the 20 μM WT ClbP reaction relative to the no-enzyme control)”. In data set [2], the “Assay 3 (% Remaining at 24 h)” value is “C (>75% of the tested compound remaining)”.
